Source: ChEMBL document CHEMBL3885861, “Open TG-GATES”

Species: Rattus norvegicus
Experiment: Open TG-GATES - Regimen: Single
Assay type: toxicity, organism-based, Sprague-Dawley
Set-up: regimen Single, gender Male, age 6 weeks
Conditions: in vivo, po, route gavage; for gamma-GTP / ALP / ALT / AST / BUN / CRE / Ca / Cl / DBIL / GLC / IP / K / LDH / PL / RALB / TBIL / TC / TP / Na: tissue Plasma; for APTT / Bas / Eos / Fbg / Hb / Ht / Lym / MCH / MCHC / MCV / Mono / PT / Plat / RBC / Ret / WBC: tissue Blood; for KIDNEY_L / KIDNEY_R / KIDNEY_TOTAL: tissue Kidney; for LIVER: tissue Liver
[1] = 10 mg/kg, 24 h, dose level High

C#C[C@]1(O)CC[C@H]2[C@@H]3CCc4cc(O)ccc4[C@H]3CC[C@@]21C [ETHINYL ESTRADIOL]
gamma-GTP (3 mg/kg, 24 h, dose level Middle): 1 IU/L
TERMINAL_BW (10 mg/kg, 3 h, dose level High): 198.2 g
APTT (10 mg/kg, 3 h, dose level High): 15.3 s
Bas (10 mg/kg, 3 h, dose level High): 0%
Eos (10 mg/kg, 3 h, dose level High): 0.8%
Fbg (10 mg/kg, 3 h, dose level High): 270.4 mg/dL
Hb (10 mg/kg, 3 h, dose level High): 13 g/dL
Ht (10 mg/kg, 3 h, dose level High): 39.6%
Lym (10 mg/kg, 3 h, dose level High): 78.6%
MCH (10 mg/kg, 3 h, dose level High): 21.4 pg
MCHC (10 mg/kg, 3 h, dose level High): 32.9%
MCV (10 mg/kg, 3 h, dose level High): 65.2 fL
Mono (10 mg/kg, 3 h, dose level High): 3%
PT (10 mg/kg, 3 h, dose level High): 12.2 s
Plat (10 mg/kg, 3 h, dose level High): 115.1 x10_4/uL
RBC (10 mg/kg, 3 h, dose level High): 608.4 x10_4/ul
Ret (10 mg/kg, 3 h, dose level High): 9.5%
WBC (10 mg/kg, 3 h, dose level High): 93.6 x10_2/uL
KIDNEY_L (10 mg/kg, 3 h, dose level High): 0.9 g
KIDNEY_R (10 mg/kg, 3 h, dose level High): 0.9 g
KIDNEY_TOTAL (10 mg/kg, 3 h, dose level High): 1.8 g
LIVER (10 mg/kg, 3 h, dose level High): 8.6 g
ALP (10 mg/kg, 3 h, dose level High): 1437.2 IU/L
ALT (10 mg/kg, 3 h, dose level High): 44 IU/L
AST (10 mg/kg, 3 h, dose level High): 74 IU/L
BUN (10 mg/kg, 3 h, dose level High): 9.8 mg/dL
CRE (10 mg/kg, 3 h, dose level High): 0.2 mg/dL
Ca (10 mg/kg, 3 h, dose level High): 11.2 mg/dL
Cl (10 mg/kg, 3 h, dose level High): 105.8 meq/L
DBIL (10 mg/kg, 3 h, dose level High): 0.016 mg/dL
GLC (10 mg/kg, 3 h, dose level High): 182.8 mg/dL
IP (10 mg/kg, 3 h, dose level High): 9.7 mg/dL
K (10 mg/kg, 3 h, dose level High): 4 meq/L
LDH (10 mg/kg, 3 h, dose level High): 55 IU/L
PL (10 mg/kg, 3 h, dose level High): 139.8 mg/dL
RALB (10 mg/kg, 3 h, dose level High): 2.5 g/dL
TBIL (10 mg/kg, 3 h, dose level High): 0.044 mg/dL
TC (10 mg/kg, 3 h, dose level High): 73.4 mg/dL
TP (10 mg/kg, 3 h, dose level High): 5.3 g/dL
gamma-GTP (10 mg/kg, 3 h, dose level High): 1 IU/L
TERMINAL_BW (10 mg/kg, 6 h, dose level High): 197 g
APTT (10 mg/kg, 6 h, dose level High): 16.9 s
Bas (10 mg/kg, 6 h, dose level High): 0%
Eos (10 mg/kg, 6 h, dose level High): 1%
Fbg (10 mg/kg, 6 h, dose level High): 255.2 mg/dL
Hb (10 mg/kg, 6 h, dose level High): 12.8 g/dL
Lym (10 mg/kg, 6 h, dose level High): 72%
MCHC (10 mg/kg, 6 h, dose level High): 33.7%
MCV (10 mg/kg, 6 h, dose level High): 63 fL
PT (10 mg/kg, 6 h, dose level High): 12.5 s
Plat (10 mg/kg, 6 h, dose level High): 110.6 x10_4/uL
RBC (10 mg/kg, 6 h, dose level High): 605.4 x10_4/ul
Ret (10 mg/kg, 6 h, dose level High): 9.4%
WBC (10 mg/kg, 6 h, dose level High): 71.5 x10_2/uL
KIDNEY_L (10 mg/kg, 6 h, dose level High): 0.9 g
KIDNEY_R (10 mg/kg, 6 h, dose level High): 0.9 g
KIDNEY_TOTAL (10 mg/kg, 6 h, dose level High): 1.8 g
LIVER (10 mg/kg, 6 h, dose level High): 8 g
ALP (10 mg/kg, 6 h, dose level High): 1644.6 IU/L
ALT (10 mg/kg, 6 h, dose level High): 39.6 IU/L
AST (10 mg/kg, 6 h, dose level High): 78.6 IU/L
BUN (10 mg/kg, 6 h, dose level High): 7.6 mg/dL
CRE (10 mg/kg, 6 h, dose level High): 0.2 mg/dL
Ca (10 mg/kg, 6 h, dose level High): 10.7 mg/dL
Cl (10 mg/kg, 6 h, dose level High): 108.8 meq/L
DBIL (10 mg/kg, 6 h, dose level High): 0.018 mg/dL
IP (10 mg/kg, 6 h, dose level High): 10.5 mg/dL
LDH (10 mg/kg, 6 h, dose level High): 42.8 IU/L
Na (10 mg/kg, 6 h, dose level High): 145 meq/L
PL (10 mg/kg, 6 h, dose level High): 115.6 mg/dL
RALB (10 mg/kg, 6 h, dose level High): 2.6 g/dL
TBIL (10 mg/kg, 6 h, dose level High): 0.042 mg/dL
TC (10 mg/kg, 6 h, dose level High): 58.8 mg/dL
TP (10 mg/kg, 6 h, dose level High): 5.4 g/dL
gamma-GTP (10 mg/kg, 6 h, dose level High): 1 IU/L
TERMINAL_BW (10 mg/kg, 9 h, dose level High): 194.6 g
APTT (10 mg/kg, 9 h, dose level High): 15.5 s
Bas (10 mg/kg, 9 h, dose level High): 0.2%
Eos (10 mg/kg, 9 h, dose level High): 1%
Fbg (10 mg/kg, 9 h, dose level High): 262.8 mg/dL
Hb (10 mg/kg, 9 h, dose level High): 13.1 g/dL
Ht (10 mg/kg, 9 h, dose level High): 39%
Lym (10 mg/kg, 9 h, dose level High): 72%
MCH (10 mg/kg, 9 h, dose level High): 21.6 pg
MCHC (10 mg/kg, 9 h, dose level High): 33.6%
MCV (10 mg/kg, 9 h, dose level High): 64.5 fL
PT (10 mg/kg, 9 h, dose level High): 12.8 s
Plat (10 mg/kg, 9 h, dose level High): 104.1 x10_4/uL
RBC (10 mg/kg, 9 h, dose level High): 606 x10_4/ul
Ret (10 mg/kg, 9 h, dose level High): 8.6%
WBC (10 mg/kg, 9 h, dose level High): 82.4 x10_2/uL
KIDNEY_L (10 mg/kg, 9 h, dose level High): 0.9 g
KIDNEY_R (10 mg/kg, 9 h, dose level High): 0.8 g
KIDNEY_TOTAL (10 mg/kg, 9 h, dose level High): 1.7 g
LIVER (10 mg/kg, 9 h, dose level High): 7.2 g
ALP (10 mg/kg, 9 h, dose level High): 1741.8 IU/L
ALT (10 mg/kg, 9 h, dose level High): 40.8 IU/L
AST (10 mg/kg, 9 h, dose level High): 76.8 IU/L
BUN (10 mg/kg, 9 h, dose level High): 8 mg/dL
CRE (10 mg/kg, 9 h, dose level High): 0.2 mg/dL
Ca (10 mg/kg, 9 h, dose level High): 10.5 mg/dL
Cl (10 mg/kg, 9 h, dose level High): 109 meq/L
DBIL (10 mg/kg, 9 h, dose level High): 0.018 mg/dL
GLC (10 mg/kg, 9 h, dose level High): 188.2 mg/dL
IP (10 mg/kg, 9 h, dose level High): 10.1 mg/dL
K (10 mg/kg, 9 h, dose level High): 3.7 meq/L
LDH (10 mg/kg, 9 h, dose level High): 40.6 IU/L
Na (10 mg/kg, 9 h, dose level High): 146 meq/L
PL (10 mg/kg, 9 h, dose level High): 90.6 mg/dL
RALB (10 mg/kg, 9 h, dose level High): 2.4 g/dL
TBIL (10 mg/kg, 9 h, dose level High): 0.046 mg/dL
TC (10 mg/kg, 9 h, dose level High): 41.6 mg/dL
TP (10 mg/kg, 9 h, dose level High): 5.2 g/dL
TERMINAL_BW [1]: 197.9 g
Bas [1]: 0%
Eos [1]: 1%
Fbg [1]: 203.8 mg/dL
Hb [1]: 12.9 g/dL
Ht [1]: 38%
Lym [1]: 78.4%
MCH [1]: 22 pg
MCHC [1]: 34%
MCV [1]: 64.6 fL
Mono [1]: 4.4%
Plat [1]: 110.8 x10_4/uL
RBC [1]: 589.2 x10_4/ul
Ret [1]: 8.5%
WBC [1]: 92.3 x10_2/uL
KIDNEY_L [1]: 0.9 g
KIDNEY_R [1]: 0.9 g
KIDNEY_TOTAL [1]: 1.8 g
LIVER [1]: 9.4 g
ALP [1]: 1883.2 IU/L
ALT [1]: 42.8 IU/L
AST [1]: 71.6 IU/L
BUN [1]: 9 mg/dL
CRE [1]: 0.2 mg/dL
Ca [1]: 10.7 mg/dL
Cl [1]: 108.8 meq/L
DBIL [1]: 0.018 mg/dL
IP [1]: 7 mg/dL
K [1]: 4 meq/L
LDH [1]: 54.6 IU/L
PL [1]: 86.6 mg/dL
RALB [1]: 2.5 g/dL
TBIL [1]: 0.042 mg/dL
TC [1]: 32.4 mg/dL
TP [1]: 5.2 g/dL
gamma-GTP [1]: 1 IU/L
